Source: the supplement of paper PMC11061612

Experiments:
Experiment in all cases: combination Emax (second highest fraction inhibited in the dose matrix, 72 h); higher = more inhibition; extreme values may be limits of the assay
[1] = tested on: DBTRG-05MG (Glioblastoma)
Summary of the method: (§1)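 Cell lines grown in DMEM/F12 or RPMI with 10% FBS were plated in 1536-well plates and held 24 hours at 37°C, 5% CO2 before 72 hours of exposure to two-drug dose matrices, with DMSO typically at 0.2%. CellTiter-Glo 2.0 luminescence gave viability, which was converted to inhibition. Vehicle wells were set to 0 and blank wells to 1. Combination Emax is the second-highest inhibition in the matrix, and Bliss excess is the observed combination effect minus the expected EA + EB − EA·EB, where EA and EB are the single-agent effects.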

[2] = tested on: SNU-423 (Hepatocellular Carcinoma)
Summary of the method: as §1

[3] = tested on: NCI-H1341 (Small Cell Lung Carcinoma)
Summary of the method: as §1

[4] = tested on: HT-1080 (Other Solid Carcinomas)
Summary of the method: as §1

[5] = tested on: NAMALWA (Burkitt's Lymphoma)
Summary of the method: as §1

[6] = tested on: NB1 (Neuroblastoma)
Summary of the method: as §1

[7] = tested on: WM35 (Melanoma)
Summary of the method: as §1

[8] = tested on: SAT (Head and Neck Carcinoma)
Summary of the method: as §1

[9] = tested on: NCI-H2373 (Mesothelioma)
Summary of the method: as §1

[10] = tested on: BxPC-3 (Pancreatic Carcinoma)
Summary of the method: as §1

[11] = tested on: C-33-A (Cervical Carcinoma)
Summary of the method: as §1

[12] = tested on: SKG-IIIa (Cervical Carcinoma)
Summary of the method: as §1

[13] = tested on: T84 (Colorectal Carcinoma)
Summary of the method: as §1

[14] = tested on: ZR-75-30 (Breast Carcinoma)
Summary of the method: as §1

Structure (SMILES) | combination Emax [1] | combination Emax [2] | combination Emax [3] | combination Emax [4] | combination Emax [5] | combination Emax [6] | combination Emax [7] | combination Emax [8] | combination Emax [9] | combination Emax [10] | combination Emax [11] | combination Emax [12] | combination Emax [13] | combination Emax [14]
CN(CCO)CC[C@H](CSc1ccccc1)Nc1ccc(S(=O)(=O)NC(=O)c2ccc(N3CCC([C@@H](O)c4ccccc4-c4ccc(Cl)cc4)CC3)cc2)cc1S(=O)(=O)C(F)(F)F [AZD4320] + C[C@@H]1COCCN1C2=NC(=NC(=C2)C3(CC3)[S@](=N)(=O)C)C4=C5C=CNC5=NC=C4 [AZD6738] (first compound max 1 µM, 7x7, partner max 10 µM) | 0.834 | 0.624 | 1 | 0.656 | 0.928 | 0.936 | 0.367 | 0.587 | 0.672 | 0.751 | 0.928 | 0.536 | 0.719 | 0.286
CN(CCO)CC[C@H](CSc1ccccc1)Nc1ccc(S(=O)(=O)NC(=O)c2ccc(N3CCC([C@@H](O)c4ccccc4-c4ccc(Cl)cc4)CC3)cc2)cc1S(=O)(=O)C(F)(F)F [AZD4320] + C[C@@H](Nc1cc(F)cc(F)c1)c1cc(C(=O)N(C)C)cc2c(=O)cc(N3CCOCC3)oc12 [AZD8186] (first compound max 1 µM, 7x7, partner max 3 µM) | 0.935 | 0.547 | 0.99 | 0.704 | 0.573 | 0.651 | 0.561 | 0.446 | 0.48 | 0.252 | 0.515 | 0.471 | 0.249 | 0.285
CN(CCO)CC[C@H](CSc1ccccc1)Nc1ccc(S(=O)(=O)NC(=O)c2ccc(N3CCC([C@@H](O)c4ccccc4-c4ccc(Cl)cc4)CC3)cc2)cc1S(=O)(=O)C(F)(F)F [AZD4320] + Cc1cc2ncnn2cc1Nc1ncc2c(n1)n(C1CCOCC1)c(=O)n2C [AZD7648] (first compound max 1 µM, 7x7, partner max 10 µM) | 0.827 | 0.39 | 0.999 | 0.535 | 0.323 | 0.191 | 0.16 | 0.305 | 0.374 | 0.0888 | 0.22 | 0.12 | 0.0764 | 0.126
CN(CCO)CC[C@H](CSc1ccccc1)Nc1ccc(S(=O)(=O)NC(=O)c2ccc(N3CCC([C@@H](O)c4ccccc4-c4ccc(Cl)cc4)CC3)cc2)cc1S(=O)(=O)C(F)(F)F [AZD4320] + Cn1cnc2c(F)c(Nc3ccc(Br)cc3Cl)c(C(=O)NOCCO)cc21 [Selumetinib] (first compound max 1 µM, 7x7, partner max 3 µM) | 0.702 | 0.414 | 0.99 | 0.666 | 0.512 | 0.448 | 0.926 | 0.591 | 0.406 | 0.379 | 0.531 | 0.431 | 0.319 | 0.294
Cc1c2c(nn1C)CSCc1cc(n(C)n1)CSc1cc(c3ccccc3c1)OCCCc1c(C(=O)O)n(C)c3c-2c(Cl)ccc13 [AZD5991] + C1CN(CCC1(C(=O)N[C@@H](CCO)C2=CC=C(C=C2)Cl)N)C3=NC=NC4=C3C=CN4 [Capivasertib] (first compound max 1 µM, 7x7, partner max 3 µM) | 0.199 | 0.341 | 0.647 | 0.139 | 1 | 0.507 | 0.207 | 0.738 | 0.42 | 0.126 | 0.689 | 0.18 | 0.0983 | 0.567
Cc1c2c(nn1C)CSCc1cc(n(C)n1)CSc1cc(c3ccccc3c1)OCCCc1c(C(=O)O)n(C)c3c-2c(Cl)ccc13 [AZD5991] + C=CCn1c(=O)c2cnc(Nc3ccc(N4CCN(C)CC4)cc3)nc2n1-c1cccc(C(C)(C)O)n1 [AZD1775] (first compound max 1 µM, partner max 1 µM) | 0.262 | 0.591 | 0.832 | 0.402 | 0.996 | 0.936 | 0.371 | 0.829 | 0.394 | 0.616 | 0.945 | 0.377 | 0.631 | 0.364
Cc1c2c(nn1C)CSCc1cc(n(C)n1)CSc1cc(c3ccccc3c1)OCCCc1c(C(=O)O)n(C)c3c-2c(Cl)ccc13 [AZD5991] + CC1(C)CCC(CN2CCN(c3ccc(C(=O)NS(=O)(=O)c4ccc(NCC5CCOCC5)c([N+](=O)[O-])c4)c(Oc4cnc5[nH]ccc5c4)c3)CC2)=C(c2ccc(Cl)cc2)C1 [Venetoclax] (first compound max 1 µM, 7x7, partner max 1 µM) | 0.158 | 0.144 | 0.634 | 0.188 | 0.994 | 0.535 | 0.243 | 0.703 | 0.161 | 0.334 | 0.484 | 0.251 | 0.142 | 0.779
Cc1c2c(nn1C)CSCc1cc(n(C)n1)CSc1cc(c3ccccc3c1)OCCCc1c(C(=O)O)n(C)c3c-2c(Cl)ccc13 [AZD5991] + CCN(CCO)CCCOc1ccc2c(Nc3cc(CC(=O)Nc4cccc(F)c4)[nH]n3)ncnc2c1 [AZD2811] (first compound max 1 µM, 7x7, partner max 1 µM) | 0.225 | 0.335 | 0.341 | 0.264 | 0.98 | 0.694 | 0.243 | 0.811 | 0.267 | 0.269 | 0.275 | 0.235 | 0.177 | 0.511
Cc1c2c(nn1C)CSCc1cc(n(C)n1)CSc1cc(c3ccccc3c1)OCCCc1c(C(=O)O)n(C)c3c-2c(Cl)ccc13 [AZD5991] + CN(C)CCCOc1ccc(-c2ccc3ncc4c(c3c2)n(C2CCOCC2)c(=O)n4C)cn1 [AZD0156] (first compound max 1 µM, 7x7, partner max 1 µM) | 0.221 | 0.297 | 0.379 | 0.183 | 0.996 | 0.278 | 0.231 | 0.638 | 0.272 | 0.174 | 0.245 | 0.218 | 0.192 | 0.286
Cc1c2c(nn1C)CSCc1cc(n(C)n1)CSc1cc(c3ccccc3c1)OCCCc1c(C(=O)O)n(C)c3c-2c(Cl)ccc13 [AZD5991] + C[C@@H]1COCCN1C2=NC(=NC(=C2)C3(CC3)[S@](=N)(=O)C)C4=C5C=CNC5=NC=C4 [AZD6738] (first compound max 1 µM, 7x7, partner max 10 µM) | 0.232 | 0.471 | 0.71 | 0.495 | 0.997 | 0.931 | 0.343 | 0.79 | 0.551 | 0.518 | 0.923 | 0.333 | 0.669 | 0.429
Cc1c2c(nn1C)CSCc1cc(n(C)n1)CSc1cc(c3ccccc3c1)OCCCc1c(C(=O)O)n(C)c3c-2c(Cl)ccc13 [AZD5991] + C[C@@H](Nc1cc(F)cc(F)c1)c1cc(C(=O)N(C)C)cc2c(=O)cc(N3CCOCC3)oc12 [AZD8186] (first compound max 1 µM, 7x7, partner max 3 µM) | 0.266 | 0.431 | 0.706 | 0.157 | 0.986 | 0.26 | 0.307 | 0.747 | 0.287 | 0.206 | 0.224 | 0.24 | 0.139 | 0.528
Cc1c2c(nn1C)CSCc1cc(n(C)n1)CSc1cc(c3ccccc3c1)OCCCc1c(C(=O)O)n(C)c3c-2c(Cl)ccc13 [AZD5991] + Cc1cc2ncnn2cc1Nc1ncc2c(n1)n(C1CCOCC1)c(=O)n2C [AZD7648] (first compound max 1 µM, 7x7, partner max 10 µM) | 0.214 | 0.362 | 0.509 | 0.179 | 1 | 0.211 | 0.207 | 0.664 | 0.409 | 0.231 | 0.416 | 0.197 | 0.0921 | 0.307
Cc1c2c(nn1C)CSCc1cc(n(C)n1)CSc1cc(c3ccccc3c1)OCCCc1c(C(=O)O)n(C)c3c-2c(Cl)ccc13 [AZD5991] + Cn1cnc2c(F)c(Nc3ccc(Br)cc3Cl)c(C(=O)NOCCO)cc21 [Selumetinib] (first compound max 1 µM, 7x7, partner max 3 µM) | 0.344 | 0.27 | 0.496 | 0.428 | 0.999 | 0.238 | 0.929 | 0.803 | 0.318 | 0.483 | 0.365 | 0.24 | 0.406 | 0.281
C[C@@H]1COCCN1c1cc(C2([S@](C)(=N)=O)CC2)nc(-c2ccnc3[nH]ccc23)n1 [AZD6738] + O=C(c1cc(Cc2n[nH]c(=O)c3ccccc23)ccc1F)N1CCN(C(=O)C2CC2)CC1 [Olaparib] (first compound max 10 µM, 7x7, partner max 10 µM) | 0.239 | 0.576 | 0.755 | 0.45 | 0.938 | 0.772 | 0.547 | 0.371 | 0.66 | 0.485 | 0.89 | 0.444 | 0.672 | 0.213
